Measured values reported in patent US8729048B2, “Methods and materials for assessing responsiveness to PARP inhibitors and platinating agents” (Mayo Foundation for Medical Education and Research, priority 2011, dated 2014).
“Also recorded” adds a separate entry of the source.

Assays:
[1] = tested on: NHEJ activity in PEO4 cells; assay: NHEJ end-joining reporter assay, PEO4; assay type: cell-based; conditions: 72 hours
Excerpt: FIG. 3. Error-prone NHEJ activity is enhanced by PARP inhibitors in PEO1 cells. (A) Schematic of the in vivo NHEJ assay. Pem1-Ad2-EGFP is an EGFP-containing vector with a 2.4 kb intron (Pem1) and one exon (Ad2) inserted into the EGFP cassette. Pem1-Ad2-EGFP was cut with either HindIII or I-SceI to produce linearized substrate with compatible overhangs or incompatible inverted overhangs, respectively. Successfully recircularized plasmid will produce intact EGFP, which can be assayed via flow cytometry. Any residual uncut plasmid, due to the insertion of the Ad2 exon within the EGFP open reading frame, will be EGFP negative. A pCherry plasmid was co-transfected with substrate to correct for transfection efficiency. (B) and (C) Quantitation of NHEJ activity in PEO1 and PEO4 cells transfected with HindIII substrate (B) or I-SceI substrate (C) and exposed to ABT-888 for 72 hours. Each data point represents the mean±SEM from 3 independent experiments.
The end-joining reporter plasmid pEGFP-Pem1-Ad2 described elsewhere (Wang et al., Nucleic Acids Res., 34:6170-6182 (2006); Seluanov et al., Proc. Natl. Acad. Sci. USA, 101:7624-7629 (2004); and Fattah et al., PLoS Genet., 6:e1000855 (2010); see also (FIG. 3A)) was provided by E. Hendrickson (University of Minnesota, Minneapolis, Minn.) and was digested with either HindIII or I-SceI for 12 hours, and gel purified using a Qiagen gel extraction kit. […]

[2] = tested on: phospho-H2AX and phospho-DNA-PKcs foci in HCC1937 cells; assay: Immunofluorescence / confocal foci in HCC1937 cells; assay type: cell-based
Protocol: FIG. 15. Upon PARP inhibition, HCC1937 cells form phospho-H2AX foci that colocalize to regions of activated DNA-PK. (A) Quantitation of cells positive for phospho-H2AX foci in HCC1937 and HCC1937/BRCA1 cells, following treatment with 0.2% DMSO, 250 nM DNA-PKi, 20 μM ABT-888 (ABT), ABT-888 and DNA-PKi, 50 μM etoposide (Etop), or 5 Gy ionizing radiation (IR). Cells were exposed to ABT-888 and/or DNA-PKi for 72 hours, etoposide for 1 hour, or allowed to recover 1 hour post-IR. Results are reported as mean±SEM of 3 independent experiments. (B) Confocal microscopy after staining with antibodies to phospho-H2AX (Ser^139) and phospho-DNA PKcs (Thr^2609) as in FIG. 2D. HCC1937 cells are shown on the left, and reconstituted HCC1937/BRCA1 cells on the right.
Immunofluorescence studies were performed as described elsewhere (Segovis et al., J. Immunol., 182:6933-6942 (2009)) with several modifications. […]
Coverslips were then washed three times with PBS and incubated for 1 h with Alexa Fluor 488- and/or 568-conjugated secondary antibody (Invitrogen) diluted 1:1000. […] Phospho-H2AX positive cells (defined as having >10 foci/cell) were counted on a Zeiss Axioplan microscope. […] Quantitation and image processing were performed using the Zeiss Zen software package and Adobe Photoshop CS3.

Structure (SMILES) | end-joining of HindIII-linearized substrate [1] | effect on ABT-888 induced colocalization of phospho-Thr2609-DNA-PK and phospho-Ser139-H2AX in foci [2] | effect on formation of H2AX foci ([2]; 250 nM DNA-PKi with 20 μM ABT-888, 72 hours)
C[C@]1(c2nc3c(C(N)=O)cccc3[nH]2)CCCN1 [ABT-888] | little effect; also recorded: small increase in end-joining | – | –
CCN1CCN(CC(=O)Nc2ccc(-c3cccc4c(=O)cc(N5CCOCC5)oc34)c3sc4ccccc4c23)CC1 [AZ 12594248] | – | inhibited ABT-888 induced colocalization | diminished formation of H2AX foci
